# Source: US4318916A, “Antibiotic PS-5 and derivatives having β-lactamase inhibitory activity and production thereof” (Sanraku-Ocean Co., Ltd., priority 1977, dated 1982)
# Where two headings read alike, the source gives them in different places.
# How the values were obtained:
# Type in all cases: cell-based
# [1] = tested on: Proteus vulgaris P-5; assay: Potentiation disc assay with cephaloridine (Table 10); settings: for zone of inhibition at 625 µg/mL / zone of inhibition at 2500 µg/mL / zone of inhibition at 10000 µg/mL: P5, 18 h, read-out: Inhibition zone Without CER; for Potentiation of the antimicrobial activity of cephaloridine: disc assay, Table 10; for Inhibition zone With CER: 50 μg/ml cephaloridine in agar
# Experimental: (A) Ten milliliters of molten nutrient agar containing 50 μg/ml of penicillin G or cephaloridine, 0.8% of Kyokuto Nutrient Broth Powder and 1.0% of Difco Bacto-Agar (pH 7.0) were seeded with the beta-lactam-resistant, beta-lactamase-producing microorganisms indicated in Tables 9 and 10, and poured in a 9-cm Petri dish to provide the bio-assay agar plate. On this assay plate, 8-mm pulp discs containing 25 μl each of antibiotic PS-5 solutions at the indicated concentrations were placed and incubated at 35° C. for 18 hours before reading the inhibition zones. The control assay plate was similarly prepared without penicillin G nor cephaloridine. As reference antibiotics, penicillin G, ampicillin, oxacillin and cefazolin were disc-assayed under the same conditions.
# [2] = tested on: Staphylococcus aureus EDA 209 P; assay: MIC by broth dilution (Table 8); settings: EDA209P, 20 h; Staphylococcus aureus EDA 209 P; PS-5 as sodium salt; read-out: Minimum inhibitory concentration
# Experimental: (§1) The MIC values of antibiotic PS-5 sodium salt were determined on various pathogenic microorganisms including resistant strains by the broth dilution method utilizing the BRAIN HEART INFUSION BROTH `Eiken` (EIKEN CHEMICAL CO., LTD.).
# (§2) The antibiotic PS-5 sodium salt was dissolved in BRAIN HEART INFUSION BROTH `Eiken` (EIKEN CHEMICAL CO., LTD.) (pH 7.0) at concentration in the range of 5-50 μg/ml, from which appropriate dilution series were made in the same liquid medium. The microorganisms listed in Table 8 were cultivated for 18 hours in BRAIN HEART INFUSION BROTH `Eiken` at 28° C. and inoculated into the said dilution series of antibiotic PS-5 at a final inoculum size of 1×10^5 cells/ml. The cultures were allowed to stand at 35° C. for 20 hours, and then the growth of the microorganisms was read at each dilution of antibiotic PS-5. The minimum inhibitory concentration (MIC) represents the smallest concentration of the antibiotic PS-5 (sodium salt) where no propagation of the relevant microorganism was visually confirmed. As the controls, two known beta-lactam antibiotics, cephaloridine and cefoxitin were dissolved in brain heart infustion broth at pH 7.0 at concentrations ranging from 1 μg/ml to 100 μ g/ml and then diluted to make several dilution series in the above mentioned liquid medium. These samples were treated as described above for the MIC determinations.
# [3] = tested on: Diplococcus pneumoniae Type III; assay: MIC by broth dilution (Table 8); settings: Streptococcus pneumoniae, 20 h; Diplococcus pneumoniae Type III; 10% horse blood supplemented into the medium; read-out: Minimum inhibitory concentration
# Experimental: as §1, §2
# [4] = tested on: Bacillus subtilis ATCC 6633; assay: MIC by broth dilution (Table 8); settings: ATCC6633, 20 h; Bacillus subtilis ATCC 6633; read-out: Minimum inhibitory concentration
# Experimental: as §1, §2
# [5] = tested on: Streptococcus pyogenes NY-5; assay: MIC by broth dilution (Table 8); settings: NY5, 20 h; Streptococcus pyogenes NY-5; 10% horse blood supplemented into the medium; read-out: Minimum inhibitory concentration
# Experimental: as §1, §2
# [6] = tested on: Staphylococcus aureus Smith; assay: MIC by broth dilution (Table 8); settings: 20 h; Staphylococcus aureus Smith; PS-5 as sodium salt; read-out: Minimum inhibitory concentration
# Experimental: as §1, §2
# [7] = tested on: Staphylococcus aureus Bx-1633; assay: MIC by broth dilution (Table 8); settings: BX1633, 20 h; Staphylococcus aureus Bx-1633; PS-5 as sodium salt; read-out: Minimum inhibitory concentration
# Experimental: as §1, §2
# [8] = tested on: Klebsiella pneumoniae K-2; assay: MIC by broth dilution (Table 8); settings: K2, 20 h, betalactamase producer, read-out: Minimum inhibitory concentration
# Experimental: as §1
# as §2, with “determinations. In addition to the MIC values of antibiotic PS-5, those of cephaloridine and cefoxitin are included for reference.” for “determinations.”
# [9] = tested on: Escherichia coli K 12; assay: MIC by broth dilution (Table 8); settings: K12, 20 h; Escherichia coli K 12; read-out: Minimum inhibitory concentration
# Experimental: as §1
# as §2, with “determinations. In addition to the MIC values of antibiotic PS-5, those of cephaloridine and cefoxitin are included for reference.” for “determinations.”
# [10] = tested on: Enterobacter sp. E-8; assay: MIC by broth dilution (Table 8); settings: SP.E8, 20 h; Enterobacter sp. E-8; betalactamase producer; read-out: Minimum inhibitory concentration
# Experimental: as §1
# as §2, with “determinations. In addition to the MIC values of antibiotic PS-5, those of cephaloridine and cefoxitin are included for reference.” for “determinations.”
# [11] = tested on: Enterobacter aerogenes E-19; assay: MIC by broth dilution (Table 8); settings: Klebsiella aerogenes, E19, 20 h, betalactamase producer, read-out: Minimum inhibitory concentration
# Experimental: as §1
# as §2, with “determinations. In addition to the MIC values of antibiotic PS-5, those of cephaloridine and cefoxitin are included for reference.” for “determinations.”
# [12] = tested on: Staphylococcus aureus Russell; assay: MIC by broth dilution (Table 8); settings: 20 h; Staphylococcus aureus Russell; PS-5 as sodium salt; read-out: Minimum inhibitory concentration
# Experimental: as §1
# as §2, with “determinations. In addition to the MIC values of antibiotic PS-5, those of cephaloridine and cefoxitin are included for reference.” for “determinations.”
# [13] = tested on: Proteus vulgaris P-5; assay: MIC by broth dilution (Table 8); settings: P5, 20 h, betalactamase producer, read-out: Minimum inhibitory concentration
# Experimental: as §1
# as §2, with “determinations. In addition to the MIC values of antibiotic PS-5, those of cephaloridine and cefoxitin are included for reference.” for “determinations.”
# [14] = tested on: Providencia sp. P-8; assay: MIC by broth dilution (Table 8); settings: SP.P8, 20 h, resistant to kanamycin, gentamicin and tobramycin, read-out: Minimum inhibitory concentration
# Experimental: as §1
# as §2, with “determinations. In addition to the MIC values of antibiotic PS-5, those of cephaloridine and cefoxitin are included for reference.” for “determinations.”
# [15] = tested on: Serratia marcescens S-18; assay: MIC by broth dilution (Table 8); settings: S18, 20 h, betalactamase producer, read-out: Minimum inhibitory concentration
# Experimental: as §1
# as §2, with “determinations. In addition to the MIC values of antibiotic PS-5, those of cephaloridine and cefoxitin are included for reference.” for “determinations.”
# [16] = tested on: Proteus sp. P-22; assay: MIC by broth dilution (Table 8); settings: 20 h; Proteus sp. P-22; read-out: Minimum inhibitory concentration
# Experimental: as §1
# as §2, with “determinations. In addition to the MIC values of antibiotic PS-5, those of cephaloridine and cefoxitin are included for reference.” for “determinations.”
# [17] = tested on: Proteus mirabilis P-6; assay: MIC by broth dilution (Table 8); settings: P6, 20 h, resistant to kanamycin, gentamicin and tobramycin, read-out: Minimum inhibitory concentration
# Experimental: as §1
# as §2, with “determinations. In addition to the MIC values of antibiotic PS-5, those of cephaloridine and cefoxitin are included for reference.” for “determinations.”
# [18] = tested on: Enterobacter cloacae E-16; assay: MIC by broth dilution (Table 8); settings: E16, 20 h, betalactamase producer, read-out: Minimum inhibitory concentration
# Experimental: as §1
# as §2, with “determinations. In addition to the MIC values of antibiotic PS-5, those of cephaloridine and cefoxitin are included for reference.” for “determinations.”
# [19] = tested on: Citrobacter freundii E-9; assay: MIC by broth dilution (Table 8); settings: E9, 20 h; Citrobacter freundii E-9; betalactamase producer; read-out: Minimum inhibitory concentration
# Experimental: as §1
# as §2, with “determinations. In addition to the MIC values of antibiotic PS-5, those of cephaloridine and cefoxitin are included for reference.” for “determinations.”
# [20] = tested on: Proteus rettgeri P-7; assay: MIC by broth dilution (Table 8); settings: Providencia rettgeri, P7, 20 h, resistant to gentamicin and tobramycin, read-out: Minimum inhibitory concentration
# Experimental: as §1
# as §2, with “determinations. In addition to the MIC values of antibiotic PS-5, those of cephaloridine and cefoxitin are included for reference.” for “determinations.”
# [21] = tested on: Alcaligenes faecalis B-326; assay: MIC by broth dilution (Table 8); settings: B326, 20 h; Alcaligenes faecalis B-326; read-out: Minimum inhibitory concentration
# Experimental: as §1
# as §2, with “determinations. In addition to the MIC values of antibiotic PS-5, those of cephaloridine and cefoxitin are included for reference.” for “determinations.”
# [22] = Proteus vulgaris P-5, reference antibiotic 625 μg/ml
# [23] = Proteus vulgaris P-5, reference antibiotic 2,500 μg/ml
# [24] = Proteus vulgaris P-5, reference antibiotic 10,000 μg/ml
smiles,measurement,setting,value
"Cc1nnc(SCC2=C(C(=O)O)N3C(=O)[C@@H](NC(=O)Cn4cnnn4)[C@H]3SC2)s1 [Cefazolin, cefazolin]",zone of inhibition at 625 µg/mL,[1]; [22],0 mm
same,zone of inhibition at 2500 µg/mL,[1]; [23],0 mm
same,zone of inhibition at 10000 µg/mL,[1]; [24],14.6 mm
same,Potentiation of the antimicrobial activity of cephaloridine,[1]; Proteus vulgaris P-5,could not increase the antimicrobial activity of cephaloridine
same,Inhibition zone With CER,[1]; [22],0 mm
same,Inhibition zone With CER,[1]; [23],0 mm
same,Inhibition zone With CER,[1]; [24],12.0 mm
"CO[C@@]1(NC(=O)Cc2cccs2)C(=O)N2C(C(=O)O)=C(COC(N)=O)CS[C@@H]21 [Cefoxitin, cefoxitin]",MIC,[2],1.25 µg/mL
same,MIC,[3],1.25 µg/mL
same,MIC,[4],1.25 µg/mL
same,MIC,[5],0.63 µg/mL
same,MIC,[6],2.5 µg/mL
same,MIC,[7],1.25 µg/mL
same,MIC,[8],6.25 µg/mL
same,MIC,[9],2.5 µg/mL
same,MIC,[10],12.5 µg/mL
same,MIC,[11],> 100 µg/mL
same,MIC,[12],2.5 µg/mL
same,MIC,[13],12.5 µg/mL
same,MIC,[14],25 µg/mL
same,MIC,[15],50 µg/mL
same,MIC,[16],12.5 µg/mL
same,MIC,[17],12.5 µg/mL
same,MIC,[18],> 100 µg/mL
same,MIC,[19],> 100 µg/mL
same,MIC,[20],6.25 µg/mL
same,MIC,[21],1.56 µg/mL
"Cc1onc(-c2ccccc2)c1C(=O)N[C@@H]1C(=O)N2[C@@H]1SC(C)(C)[C@@H]2C(=O)O [Oxacillin, oxacillin]",Potentiation of the antimicrobial activity of cephaloridine,[1]; Proteus vulgaris P-5,could not increase the antimicrobial activity of cephaloridine
same,Inhibition zone With CER,[1]; [22],0 mm
same,Inhibition zone With CER,[1]; [23],0 mm
same,Inhibition zone With CER,[1]; [24],0 mm
same,zone of inhibition at 625 µg/mL,[1]; Proteus vulgaris,0 mm
same,zone of inhibition at 2500 µg/mL,[1]; Proteus vulgaris,0 mm
same,zone of inhibition at 10000 µg/mL,[1]; Proteus vulgaris,0 mm
"CC1(C)S[C@@H]2[C@H](NC(=O)Cc3ccccc3)C(=O)N2[C@H]1C(=O)O [Penicillin G, penicillin G]",Potentiation of the antimicrobial activity of cephaloridine,[1]; Proteus vulgaris P-5,could not increase the antimicrobial activity of cephaloridine
same,Inhibition zone With CER,[1]; [22],0 mm
same,Inhibition zone With CER,[1]; [23],0 mm
same,Inhibition zone With CER,[1]; [24],14.5 mm
same,zone of inhibition at 625 µg/mL,[1]; Proteus vulgaris,0 mm
same,zone of inhibition at 2500 µg/mL,[1]; Proteus vulgaris,0 mm
same,zone of inhibition at 10000 µg/mL,[1]; Proteus vulgaris,14.9 mm
